Test results reported in paper PMC5902575, “Characterization of AiiK, an AHL lactonase, from Kurthia huakui LAM0618^T and its application in quorum quenching on Pseudomonas aeruginosa PAO1” (Scientific Reports, 2018).

The compounds below were run against T1, AiiK (Kurthia huakuii, UniProt Z9B3F0ZFT1) (assay: HPLC of remaining AHL at […] nm, Michaelis-Menten fit). Settings: 10 mM PBS pH 7.4, 25 °C, 10 min, 4 μg/mL enzyme, 25–150 μM substrate; unit given as mM^−1 in the source; unit of the source corrected.
T1 construct: primer-encoded N-terminus MCQNKKLY
T1 sequence (Z9B3F0ZFT1 1-278 limits assumed): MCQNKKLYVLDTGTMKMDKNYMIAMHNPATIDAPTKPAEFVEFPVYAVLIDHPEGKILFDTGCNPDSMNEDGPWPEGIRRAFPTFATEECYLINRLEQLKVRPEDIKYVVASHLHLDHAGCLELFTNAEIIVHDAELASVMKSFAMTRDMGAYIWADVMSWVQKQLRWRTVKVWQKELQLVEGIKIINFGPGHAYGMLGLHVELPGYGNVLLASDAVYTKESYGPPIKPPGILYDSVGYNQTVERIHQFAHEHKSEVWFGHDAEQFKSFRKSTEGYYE
Type: biochemical

Structure (SMILES) | Mean ± SD / Km(mM^-1) [mM]
CCCC(=O)CC(=O)N[C@H]1CCOC1=O [3-Oxo-C6-HSL] | 0.066 ± 0.02
CCCCCC(=O)N[C@H]1CCOC1=O [C6-HSL] | 0.204 ± 0.031
CCCCCCCCCC(=O)N[C@H]1CCOC1=O [C10-HSL] | 0.315 ± 0.065
CCCCCCCCCCCCCC(=O)N[C@H]1CCOC1=O [C14-HSL] | 0.036 ± 0.004
